# Measured values published in patent US8158623B2, “Heptacyclic compounds and the pharmaceutical uses thereof for preventing and treating diabetes and metabolic syndrome” (Shanghai Institute of Materia Medica Chinese Academy of …, priority 2007, dated 2012).
# Where “and” joins values, the source holds several entries; their conditions need not be identical. Equal values may be shown once.
# Key:
# 3T3-L1 adipocytes = assay: Glucose uptake in 3T3-L1 adipocytes (3H-labelled 2-deoxyglucose); type: cell-based
# Procedure: The effect of the compounds on baseline or insulin-stimulated glucose uptake was evaluated, using the model of glucose uptake in 3T3-L1 adipocytes.
# Adipose tissue is the target of glucose metabolism in vivo. The sensitivity for insulin and availability of glucose in adipose tissues are tightly associated with the insulin resistance. The transportation of glucose into adipocytes is a rate-limiting step for the glucose metabolism, and also an important indicator for evaluating the sensitivity for insulin in adipose tissue. 3T3-L1 is a kind of pre-adipocyte, and can become adipocyte after differentiated completely. Therefore, 3T3-L1 is a desirable model for the glucose transport.
# Pre-adipocyte, 3T3-L1 was induced to differentiate under certain conditions. After 3T3-L1 differentiated into adipocytes, the compounds of interest with different concentrations and DMSO (used as control) can be added and incubated with the adipocytes for different periods, then the glucose uptake could be determined. For evaluating the ability for a compound to stimulate glucose uptake, the baseline and insulin-induced glucose uptake were determined, and the increase in baseline and insulin-induced glucose uptake upon treatment of the compounds as compared with control group (with 0.1% DMSO) is calculated, based on the ^3H-labelled 2-deoxyglucose inside the cells.
# 3T3-L1 cells purchased from Karolinska Institute (Sweden) were cultured in DMEM medium containing 10% fetal calf serum at 37° C., under 5% CO2. The cells were passaged every 3-4 days. The cells were inoculated into 12-well plate. Upon confluence, culture medium containing 0.5 mM 3-isobutyl-1-methylxanthine, 0.25 μM dexamethasone and 5 μg/ml insulin was added and cultured for 3 days. Then, the culture medium was replaced by a medium containing 5 μg/ml insulin and further cultured for 3 days. The insulin was removed, and the cells had differentiated completely into mature adipocytes after 2 days which could be used to determine the glucose uptake.
# 23 compounds chosen by the inventors were added into the culture medium of adipocytes in a dose of 10 μM. After incubation for 2 h, the effect of the compounds on glucose uptake in 3T3-L1 cells was observed. Culture medium without compounds was used as negative control. The control group only supplemented with insulin and the experiment group supplemented with compounds plus insulin were also employed to observe the effect of the compounds on glucose uptake.
# ob/ob mice [1] = assay: Hypoglycemic effect of compound F7, fasting blood glucose, 3 weeks; type: in vivo; conditions: oral 50 mg/kg once daily
# Procedure: Genetic spontaneous diabetes ob/ob mice were purchased from Jackson (USA), and maintained in a SPF facility (temperature: 22-24° C., humidity: 45-80%, illumination: 150-300 Lx, 12/12-hour light/dark cycle). Fasting blood glucose was determined for 3 days continuously when the mice were 7 weeks old. The mice were grouped into the treatment group and the control group (8 animals per group) according to the results determined. The two groups were administered orally with compound F7 (50 mg/kg) and a solution of 0.1% Tween 80 respectively, once daily for 3 weeks. Fasting Blood Glucose levels of mice were measured regularly.
# ob/ob mice [2] = assay: Effect of F7 on glucose and lipid metabolic disorder, serum biochemical indicators; type: in vivo; conditions: oral 50 mg/kg once daily for 3 weeks
# Procedure: Genetic spontaneous diabetes ob/ob mice were purchased from Jackson (USA), and maintained in a SPF facility (temperature: 22-24° C., humidity: 45-80%, illumination: 150-300 Lx, 12/12-hour light/dark cycle). Fasting blood glucose was determined daily for 3 days continuously when the mice were 7 weeks old. The mice were grouped into the treatment group and the control group (8 animals per group) according to the results determined. The two groups were administered orally with compound F7 (50 mg/kg) and a solution of 0.1% Tween 80 respectively, once daily for 3 weeks. Another group of C57 mice was used as normal control. At the end of administration, blood samples were collected in each group, the serum was separated and serum biochemical indicators were detected.
# [3] = Properties of psoromic acid (solubility, acidity, stability); type: physicochemical
# Procedure: As a preferred embodiment of the present invention, the compound of the present invention is psoromic acid, F7, a white needle crystal, which is odorless, faintly bitter, with melting point of 265-266° C.
smiles,measurement,setting,value
"COc1cc(C(=O)O)c2c(c1C)OC(=O)c1c(C)cc(O)c(C=O)c1O2 [Compound F7, 4-Formyl-3-hydroxy-8-methoxy-1,9-dimethyl-11-oxo-11H-dibenzo[b,e][1,4]dioxepine-6-carboxylic acid]","Glucose uptake, Mean, Compound + Insulin Group (Control Group = 1.000)","3T3-L1 adipocytes; 10 μM, 2 h incubation, with insulin, relative to control without insulin",3.788
same,fold induction at 10 µM,"3T3-L1 adipocytes; Mus musculus, 3T3-L1, 2 h incubation, baseline (without insulin), relative to control, read-out: Glucose uptake, Mean, Compound Group (Control Group = 1.000)",1.19
same,Fasting Blood Glucose,ob/ob mice [1]; 0 day,14.0 ± 1.8 mM
same,Fasting Blood Glucose,ob/ob mice [1]; 4 day,11.3 ± 2.5 mM
same,Fasting Blood Glucose,ob/ob mice [1]; 8 day,11.1 ± 2.0 mM
same,Fasting Blood Glucose,ob/ob mice [1]; 11 day,8.8 ± 1.5 mM
same,Fasting Blood Glucose,ob/ob mice [1]; 15 day,8.5 ± 2.5 mM
same,Fasting Blood Glucose,"ob/ob mice [1]; 21 day, 50 mg/kg",7.4 mM and 7.4 ± 1.3 mM
same,Reduction of fasting blood glucose,ob/ob mice [1]; day 15 after administration,42%
same,"CHOL (total cholesterol), serum",ob/ob mice [2],6.0 ± 0.8 mmol/L
same,"FRU (fructosamine), serum",ob/ob mice [2],225.0 ± 40.4 µmol/L
same,"NFFA (unsaturated free fatty acid), serum",ob/ob mice [2],1.15 ± 0.17 mmol/L
same,"TG (triglycerides), serum",ob/ob mice [2],72.1 ± 11.1 mg/dL
same,"UA (uric acid), serum",ob/ob mice [2],316 ± 109 µM
same,Solubility in organic solvents,"[3]; DMSO, ethanol, acetone and ethyl acetate",soluble in organic solvents
same,pH (acidic),[3]; in water,3-4
same,Stability,[3]; room temperature,stable at room temperature
same,Solubility in water,[3]; water,slightly soluble in water
